According to patent US6136992A, “2-alkoxy estradiols and derivatives thereof” (The United States of America as represented by the …, priority 1998, dated 2000):
Like-named read-outs stand apart in the source and are kept apart here.

Columns and labels:
Format in all cases: cell-based
[1] = tested on: CCRF-CEM; experiment: NCI screen, leukemia; conditions: Homo sapiens, read-out: Log10 GI50, CCRF-CEM (converted)
[2] = tested on: A549/ATCC; experiment: NCI screen, non-small cell lung cancer; conditions: Homo sapiens, read-out: Log10 GI50, A549/ATCC (converted)
[3] = tested on: NCI-H23; experiment: NCI screen, non-small cell lung cancer; conditions: Homo sapiens, read-out: Log10 GI50, NCI-H23 (converted)
[4] = tested on: MDA-MB-435 breast cancer cells; experiment: NCI in vitro anticancer screen, MDA-MB-435 breast cancer; conditions: Homo sapiens
Source text: The effects of the analogs on cancer cell growth was investigated in the National Cancer Institute (NCI) Developmental Therapeutics Program's in vitro panel of approximately 55 cell lines (Grever et al., Seminars in Oncology 19:622 (1992), Alley et al., Cancer Research 48:589 (1988) and Montes et al., J. National Cancer Institute 83:757 (1991)).

[5] = tested on: DU-145 prostate cancer cells; experiment: NCI in vitro anticancer screen, DU-145 prostate cancer; conditions: Homo sapiens
Source text: (§1) The effects of the analogs on cancer cell growth was investigated in the National Cancer Institute (NCI) Developmental Therapeutics Program's in vitro panel of approximately 55 cell lines (Grever et al., Seminars in Oncology 19:622 (1992), Alley et al., Cancer Research 48:589 (1988) and Montes et al., J. National Cancer Institute 83:757 (1991)). Representative results are listed in Table 1 for HOP-62 non-small-cell lung cancer cells, HCT-116 colon cancer cells, SF-539 central nervous system (CNS) cancer cells, UACC-62 melanoma cells, OVCAR ovarian cancer cells, SN12-C renal cancer cells, DU-145 prostate cancer cells, and MDA-MB-435 breast cancer cells.
(§2) ^a The cytotoxicity GI50 values are the concentrations

[6] = tested on: HTC-15; experiment: NCI screen, colon cancer; conditions: Homo sapiens, read-out: Log10 GI50, HTC-15 (converted)
[7] = tested on: UACC-62 melanoma cells; experiment: NCI in vitro anticancer screen, UACC-62 melanoma; conditions: Homo sapiens
Source text: as §1, §2

[8] = tested on: RXF 393; experiment: NCI screen, renal cancer; conditions: Homo sapiens, read-out: Log10 GI50, RXF 393 (converted)
[9] = tested on: HOP-62 non-small-cell lung cancer cells; experiment: NCI in vitro anticancer screen, HOP-62 non-small-cell lung cancer; conditions: Homo sapiens
Source text: as §1, §2

[10] = tested on: 786-0; experiment: NCI screen, renal cancer; conditions: Homo sapiens, read-out: Log10 GI50, 786-0 (converted)
[11] = tested on: SNB-75; experiment: NCI screen, CNS cancer; conditions: Homo sapiens, read-out: Log10 GI50, SNB-75 (converted)
[12] = tested on: MCF7; experiment: NCI screen, breast cancer; conditions: Homo sapiens, read-out: Log10 GI50, MCF7 (converted)
[13] = tested on: U251; experiment: NCI screen, CNS cancer; conditions: Homo sapiens, U-251, read-out: Log10 GI50, U251 (converted)
[14] = tested on: SW-260; experiment: NCI screen, colon cancer; conditions: Homo sapiens, read-out: Log10 GI50, SW-260 (converted)
[15] = tested on: SNB-19; experiment: NCI screen, CNS cancer; conditions: Homo sapiens, read-out: Log10 GI50, SNB-19 (converted)
[16] = tested on: SF-539 central nervous system (CNS) cancer cells; experiment: NCI in vitro anticancer screen, SF-539 CNS cancer; conditions: Homo sapiens
Source text: as §1, §2

[17] = tested on: SR; experiment: NCI screen, leukemia; conditions: Homo sapiens, read-out: Log10 GI50, SR (converted)
[18] = tested on: SK-MEL-28; experiment: NCI screen, melanoma; conditions: Homo sapiens, read-out: Log10 GI50, SK-MEL-28 (converted)
[19] = tested on: all human cancer cell lines (approximately 55); experiment: NCI in vitro anticancer screen, all cell lines
Source text: as §1
^b Mean graph midpoint for all human cancer cell lines (approximately

C[C@]12CC[C@@H]3c4cc(OCC(F)(F)F)c(O)cc4C(=NO)C[C@H]3[C@@H]1CC[C@@H]2O [Compound 12, 2-(2',2', 2'-Trifluoroethoxy)-6-Hydroximino-Estra-1,3,5(10)-Triene-3,17β-Diol]
GI50 [1]: < 10 nM | GI50 [2]: < 10 nM | GI50 [3]: < 10 nM | GI50 ([4]; MDA-MB-435, read-out: cytotoxicity GI50, Breast MDA-MB-435): < 10 nM | GI50 ([4]; MDA-MB-435, Breast Cancer, read-out: Log10 GI50, MDA-MB-435 (converted)): < 10 nM | GI50 ([5]; DU-145, read-out: cytotoxicity GI50, Prostate DU-145): < 10 nM | GI50 ([5]; DU-145, Prostate Cancer, read-out: Log10 GI50, DU-145 (converted)): < 10 nM | GI50 [6]: < 10 nM | GI50 ([7]; UACC-62, read-out: cytotoxicity GI50, Melanoma UACC-62): < 10 nM | GI50 ([7]; UACC-62, Melanoma, read-out: Log10 GI50, UACC-62 (converted)): < 10 nM | GI50 [8]: < 10 nM | GI50 ([9]; HOP-62, read-out: cytotoxicity GI50, Lung HOP-62): < 10 nM | GI50 ([9]; HOP-62, Non-Small Cell Lung Cancer, read-out: Log10 GI50, HOP-62 (converted)): < 10 nM | GI50 [10]: < 10 nM | GI50 [11]: < 10 nM | GI50 [12]: < 10 nM | GI50 [13]: < 10 nM | GI50 [14]: < 10 nM | GI50 [15]: < 10 nM | GI50 ([16]; SF-539, CNS Cancer, read-out: Log10 GI50, SF-539 (converted)): < 10 nM | GI50 ([16]; read-out: cytotoxicity GI50, CNS SF-539): < 10 nM | GI50 [17]: < 10 nM | GI50 [18]: < 10 nM | GI50 ([19]; 10^-8 molar is the lowest concentration normally investigated, read-out: GI50): < 10 nM | GI50 ([19]; approximately 55 cell lines, read-out: MGM (mean graph midpoint for all human cancer cell lines), GI50): 10 nM | GI50 ([19]; average of all cell lines of Table 2, read-out: Log10 GI50, Average (all cell lines) (converted)): < 10 nM
